ChEMBL document CHEMBL4715834, “Design, synthesis and bio-evaluation of novel 2-aryl-4-(3,4,5-trimethoxy-benzoyl)-5-substituted-1,2,3-triazoles as the tubulin polymerization inhibitors” (Eur J Med Chem, 2020)
pIC50: −log10 of the molar value. ≈ marks a conversion by molar mass, not a printed value. Calls of active or inactive are those of the source. The calls are words filed in the database; no cut-off is given here.

Assays:
HeLa = assay: Antiproliferative activity against human HeLa cells assessed as inhibition of cell growth measured after 72 hrs by MTT assay; type: functional, cell-based
SGC-7901 [1] = assay: Antiproliferative activity against human SGC-7901 cells assessed as inhibition of cell growth measured after 72 hrs by MTT assay; type: functional, cell-based; conditions: SGC-7901, 72 h
A549 = assay: Antiproliferative activity against human A549 cells assessed as inhibition of cell growth measured after 72 hrs by MTT assay; type: functional, cell-based; conditions: A549, 72 h
SGC-7901 [2] = assay: Cell cycle arrest in human SGC-7901 cells assessed as increase in G2/M cell population at 0.023 uM by propidium iodide staining based flow cytometry; type: functional; conditions: time 12-72 hrs, TDE = time-dependent effect
[3] = Solubility of compound in water at pH 7.4 by UV-HPLC method; type: physicochemical
SGC-7901 [4] = assay: Cell cycle arrest in human SGC-7901 cells assessed as increase in sub-G1 cell population at 0.023 uM after 72 hrs by propidium iodide staining based flow cytometry; type: functional
SGC-7901 [5] = assay: Cell cycle arrest in human SGC-7901 cells assessed as decrease in G1 cell population at 0.023 uM by propidium iodide staining based flow cytometry; type: functional; conditions: time 12-72 hrs, TDE = time-dependent effect
SGC-7901 [6] = assay: Cell cycle arrest in human SGC-7901 cells assessed as decrease in G1 cell population at 0.084 uM by propidium iodide staining based flow cytometry; type: functional; conditions: time 12-72 hrs, TDE = time-dependent effect
Sus scrofa = species on record: Sus scrofa; assay: (§1) Inhibition of porcine tubulin polymerization measured for 60 mins by fluorescence assay
[7] = as §1; design: species or system Sus scrofa
SGC-7901 [8] = assay: Induction of microtubule disruption in human SGC-7901 cells assessed as appearance of disorganised microtubule at 0.084 uM measured after 24 hrs by DAPI staining based immunofluorescence assay; type: cell-based
SGC-7901 [9] = assay: Cell cycle arrest in human SGC-7901 cells assessed as increase in G2/M cell population at 0.084 uM by propidium iodide staining based flow cytometry; type: functional; conditions: time 12-72 hrs, TDE = time-dependent effect
SGC-7901 [10] = assay: Induction of microtubule disruption in human SGC-7901 cells assessed as shrinkage of microtubule at 0.084 uM measured after 24 hrs by DAPI staining based immunofluorescence assay; type: cell-based
SGC-7901 [11] = assay: Induction of microtubule disruption in human SGC-7901 cells assessed as change in shape of nucleus at 0.084 uM measured after 24 hrs by DAPI staining based immunofluorescence assay; type: cell-based
SGC-7901 [12] = assay: Cell cycle arrest in human SGC-7901 cells assessed as accumulation at G2/M cell population at 0.084 uM measured after 12 hrs by propidium iodide staining based flow cytometry (reference value: 14.5%); type: functional
SGC-7901 [13] = assay: Cell cycle arrest in human SGC-7901 cells assessed as increase in sub-G1 cell population at 0.084 uM after 72 hrs by propidium iodide staining based flow cytometry; type: functional

| Structure (SMILES) | pIC50 (HeLa) | pIC50 (SGC-7901 [1]) | pIC50 (A549) | other results |
| --- | --- | --- | --- | --- |
| COc1cc(C(=O)c2nn(-c3ccc([N+](=O)[O-])cc3)nc2N2CCN(C(C)=O)CC2)cc(OC)c1OC | 6.67 | 6.38 | 6.16 |  |
| COc1ccc(-n2nc(C(=O)c3cc(OC)c(OC)c(OC)c3)c(N3CCN(C(C)=O)CC3)n2)cc1 | 6.68 | 5.94 | 5.96 |  |
| COc1cc(C(=O)c2nn(-c3ccc(F)cc3)nc2N2CCN(C(C)=O)CC2)cc(OC)c1OC | 5.46 | 6.46 | < 4.52 |  |
| COc1cc(C(=O)c2nn(-c3ccc(C)cc3)nc2N2CCN(C(C)=O)CC2)cc(OC)c1OC | 6.53 | 6.37 | 6.12 |  |
| COc1cc(C(=O)c2csc(-c3ccccc3)n2)cc(OC)c1OC | 7.43 |  | 7.47 | Activity (SGC-7901 [2]): Tde; solubility [3]: < 0.5 µg/mL; Activity (SGC-7901 [4]): Active; Activity (SGC-7901 [5]): Tde |
| COc1cc(C(=O)c2nn(-c3ccccc3)nc2N2CCN(C(C)C)CC2)cc(OC)c1OC | 5.19 | 5.57 | 5.14 |  |
| COc1cc(C(=O)c2nn(-c3ccccc3)nc2N2CCN(C(=O)OC(C)(C)C)CC2)cc(OC)c1OC | < 4.52 | 4.95 | < 4.52 |  |
| COc1cc(C(=O)c2nn(-c3ccc(Br)cc3)nc2N2CCN(C(C)=O)CC2)cc(OC)c1OC | < 4.52 | 6.06 | 5.04 |  |
| COc1cc(C(=O)c2nn(-c3ccc(C)c(C)c3)nc2N2CCN(C(C)=O)CC2)cc(OC)c1OC | 5.41 | 5.32 | 5.58 |  |
| COc1ccc(/C=C\c2cc(OC)c(OC)c(OC)c2)cc1O [COMBRETASTATIN A4] |  |  |  | solubility [3]: 0.1 µg/mL (≈ 0.316 µM) |
| COc1cc(C(=O)c2nn(-c3ccccc3)nc2N2CCN(C)CC2)cc(OC)c1OC | 6.87 | 5.18 | 6.21 |  |
| COc1cc(C(=O)c2nn(-c3ccccc3)nc2N2CCN(C(C)=O)CC2)cc(OC)c1OC | 6.66 | 7.08 | 6.88 | Activity (SGC-7901 [6]): Tde; inhibition (Sus scrofa): Dose-dependent effect; pIC50 [7]: 4.55; Activity (SGC-7901 [8]): Active; solubility [3]: 2.7 µg/mL (≈ 5.8 µM); Activity (SGC-7901 [9]): Tde; Activity (SGC-7901 [10]): Active; Activity (SGC-7901 [11]): Active; Activity (SGC-7901 [12]): 53.9%; Activity (SGC-7901 [13]): Active |
| COc1cc(C(=O)c2nn(-c3cccc(F)c3)nc2N2CCN(C(C)=O)CC2)cc(OC)c1OC | 5.21 | 5.77 | < 4.52 |  |
| COc1ccc(-n2nc(C(=O)c3cc(OC)c(OC)c(OC)c3)c(N3CCN(C(C)=O)CC3)n2)cc1N | 5.87 | 6.26 | 6.19 |  |
| COc1cc(C(=O)c2nn(-c3ccc(Cl)cc3)nc2N2CCN(C(C)=O)CC2)cc(OC)c1OC | 5.97 | 6.39 | 6.20 |  |
| COc1ccc(-n2nc(C(=O)c3cc(OC)c(OC)c(OC)c3)c(N3CCN(C(C)=O)CC3)n2)cc1[N+](=O)[O-] | < 4.52 | < 4.52 | < 4.52 |  |
| COc1cc(C(=O)c2cnn(-c3ccccc3)n2)cc(OC)c1OC | 4.94 | 6.06 | 5.15 | solubility [3]: < 0.5 µg/mL |
| COc1cc(C(=O)c2nn(-c3ccccc3F)nc2N2CCN(C(C)=O)CC2)cc(OC)c1OC | 6.29 | 6.77 | 5.33 |  |
| COc1cc(C(=O)c2nn(-c3ccccc3C)nc2N2CCN(C(C)=O)CC2)cc(OC)c1OC | 5.57 | 5.62 | 5.08 |  |
| COc1cc(C(=O)c2nn(-c3ccccc3)nc2N2CCCCC2)cc(OC)c1OC | 5.44 | 5.43 | 5.19 |  |
| COc1cc(C(=O)c2nn(-c3ccccc3)nc2N2CCNCC2)cc(OC)c1OC | 6.47 | 5.91 | 5.37 | solubility [3]: 2.2 µg/mL (≈ 5.2 µM) |
| COc1cc(C(=O)c2nn(-c3cc(C)ccc3C)nc2N2CCN(C(C)=O)CC2)cc(OC)c1OC | < 4.52 | < 4.52 | < 4.52 |  |
| COc1cc(C(=O)c2nn(-c3ccccc3)nc2N2CCOCC2)cc(OC)c1OC | 6.05 | 5.23 | 6.31 |  |
| COc1cc(C(=O)c2nn(-c3cccc(C)c3)nc2N2CCN(C(C)=O)CC2)cc(OC)c1OC | < 4.52 | < 4.52 | < 4.52 |  |
